Columns and labels:
HPAC cells (KRAS G12D) [1] = assay: 3D Cell viability assay in HPAC cells (Biological Example 6); assay type: cell-based; details: Homo sapiens, HPAC, 72 h, HPAC (KRAS G12D) spheroids
Method in brief: (§1)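 Luminescent ATP read-out (CellTiter-Glo 3D) after 72 h compound exposure gives viability of preformed spheroids. Cells were seeded at 1000 per well in low-attachment plates and left 48 h to aggregate before dosing with nine three-fold concentrations at 0.25% DMSO.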

HT1080 cells (NRAS) = assay: Cell-based pERK HTRF assay in HT1080 cells (Biological Example 5); details: Homo sapiens, HT-1080
Protocol: (§2) Biological Example 5: Cell-based PERK HTRF assay in AsPC-1, SW1900, HPAC, Capan-2, RKN, H358, HCT116, KP-2, H1573, A549, MKN1, and HT1080 cells
(§3) The inhibition of ERK phosphorylation, as measured using the HTRF Advanced Phospho-ERK 1/2 (Thr202/Tyr204) Detection Assay kit (Perkin Elmer), was used to determine the effectiveness of test compounds in disrupting KRAS-driven protein/effector signaling in cells.
(§4) On day 1, cells were seeded into 96-well plates at 2.5×10^4 cells/well in 100 μL of complete growth media supplemented with 10% fetal bovine serum (FBS) and incubated at 37° C., in the presence of 5% CO2.
(§5) On day 2, cells were treated with compounds diluted in DMSO at 0.25% final DMSO concentration. Compounds were dosed in a 9-point concentration curve with three-fold dilution between concentrations. Cells were incubated in the presence of compound for two hours at 37° C. Following this treatment period, cells were harvested by aspirating the media, adding 40 μL of kit-supplied 1x lysis buffer per well, and shaking for 30 minutes at 250 rpm at room temperature.
(§6) Following cell lysis, samples were homogenized by pipetting up and down twenty times and 16 μL of cell lysate per well was transferred from the 96-well cell culture plate to two wells of a 384-well detection plate. A complete detection buffer was prepared by diluting D2 and Eu Cryptate antibodies 1:20 in kit-provided detection solution, 4 μL of complete detection buffer was then added to each well with lysate. Plates were incubated with gentle rocking for 24 hours at 4° C.
(§7) Following this incubation period, plates were centrifuged at 500×g for one minute and analyzed on a CLARIOstar plate reader. Data was imported into Microsoft Excel and the signal from the 665 nm channel was divided by the signal from the 620 nm channel. % pERK was calculated as: […]
(§8) Data was imported to the Prism software package (Graphpad) and EC50 values were calculated using the log (inhibitor) vs, response—variable slopc (Four parameters) model.

HCT116 cells (KRAS G13D) [2] = assay: Cell-based pERK HTRF assay in HCT116 cells (Biological Example 5); details: Homo sapiens, HCT-116
Protocol: as §2, §3, §4, §5, §6, §7, §8

SW1900 cells (KRAS G12D) [3] = assay: 3D Cell viability assay in SW1900 cells (Biological Example 6); assay type: cell-based; details: Homo sapiens; SW1990 (text: SW1900, KRAS G12D) spheroids, 72 hours
Method in brief: as §1

H358 cells (KRAS G12C) [4] = assay: Cell-based pERK HTRF assay in H358 cells (Biological Example 5); details: Homo sapiens, NCI-H358, H358 (KRAS G12C) cells
Protocol: as §2, §3, §4, §5, §6, §7, §8

A549 cells (KRAS G12S) [5] = assay: Cell-based pERK HTRF assay in A549 cells (Biological Example 5); details: Homo sapiens
Protocol: as §2, §3, §4, §5, §6, §7, §8

HCT116 cells (KRAS G13D) [6] = assay: 3D Cell viability assay in HCT116 cells (Biological Example 6); assay type: cell-based; details: Homo sapiens, HCT-116; HCT116 (KRAS G13D) spheroids, 72 hours
Method in brief: as §1

HPAC cells (KRAS G12D) [7] = assay: Cell-based pERK HTRF assay in HPAC cells (Biological Example 5); details: Homo sapiens, HPAC
Protocol: as §2, §3, §4, §5, §6, §7, §8

[8] = system: Capan-2 cells (KRAS G12V); assay: Cell-based pERK HTRF assay in Capan-2 cells (Biological Example 5); details: Homo sapiens, Capan-2, Capan-2 (KRAS G12V) cells
Protocol: as §2, §3, §4, §5, §6, §7, §8

[9] = system: MKN1 cells (KRAS amplification); assay: Cell-based pERK HTRF assay in MKN1 cells (Biological Example 5); details: Homo sapiens, MKN-1, MKN cells (MKN1, KRAS amplification)
Protocol: as §2, §3, §4, §5, §6, §7, §8

H1573 cells (KRAS G12A) = assay: 3D Cell viability assay in H1573 cells (Biological Example 6); assay type: cell-based; details: Homo sapiens, NCI-H1573; H1573 (KRAS G12A) spheroids, 72 hours
Protocol: (§9) Biological Example 6: 3D Cell viability assay in AsPC-1, SW1900, HPAC, Capan-2, RKN, H358, HCT116, KP-2, H1573, A549, MKN1, and HT1080 cells
(§10) The inhibition of cellular viability as a result of test compound treatment in a spheroid assay was measured using the CellTiter-Glow 3D Cell Viability Assay (Promega).
(§11) On Day 1, 1000 cells per well were seeded in 150 μL of complete growth media supplemented with 10% fetal bovine serum (FBS) and incubated at 37° C., in the presence of 5% CO2 in 96-well ultra-low attachment microplates (Corning) for 48 hours undisturbed to allow spheroids to form.
(§12) Following spheroid formation, cells were treated with compounds diluted in DMSO at 0.25% final DMSO concentration. Compounds were dosed in a 9-point concentration curve with three-fold dilution between concentrations. Cells were incubated in the presence of compound for 72 hours at 37° C., in the presence of 5% CO2.
(§13) Following this incubation period, the kit-provided CTG reagent was allowed to equilibrate for 30 minutes at room temperature, 150 μL of equilibrated CTG reagent was added to each well, and the plate was sealed before shaking at 250 rpm for 10 minutes at room temperature to lyse the cells, 150 μL of lysate per well was transferred to a 96-well plate and luminescence was read on a CLARIOstar plate reader.
(§14) Data was imported into the Prism software package (Graphpad) and EC50 values were calculated using the log (inhibitor) vs, response—variable slope (Four parameters) model.

A549 cells (KRAS G12S) [10] = assay: 3D Cell viability assay in A549 cells (Biological Example 6); assay type: cell-based; details: Homo sapiens; A549 (KRAS G12S) spheroids, 72 hours
Protocol: as §9, §10, §11, §12, §13, §14

H358 cells (KRAS G12C) [11] = assay: 3D Cell viability assay in H358 cells (Biological Example 6); assay type: cell-based; details: Homo sapiens, NCI-H358; H358 (KRAS G12C) spheroids, 72 hours
Method in brief: as §1

SW1900 cells (KRAS G12D) [12] = assay: Cell-based pERK HTRF assay in SW1900 cells (Biological Example 5); details: Homo sapiens, SW1990, SW1990 cells (text: SW1900, KRAS G12D)
Protocol: as §2, §3, §4, §5, §6, §7, §8

RKN cells (KRAS G12V) [13] = assay: 3D Cell viability assay in RKN cells (Biological Example 6); assay type: cell-based; details: RKN (KRAS G12V) spheroids, 72 hours
Protocol: as §9, §10, §11, §12, §13, §14

RKN cells (KRAS G12V) [14] = assay: Cell-based pERK HTRF assay in RKN cells (Biological Example 5)
Protocol: as §2, §3, §4, §5, §6, §7, §8

Row | Compound | IC50 (HPAC cells (KRAS G12D) [1]) [nM] | IC50 (HT1080 cells (NRAS)) [nM] | IC50 (HCT116 cells (KRAS G13D) [2]) [nM] | IC50 (SW1900 cells (KRAS G12D) [3]) [nM] | IC50 (H358 cells (KRAS G12C) [4]) [nM] | IC50 (A549 cells (KRAS G12S) [5]) [nM] | IC50 (HCT116 cells (KRAS G13D) [6]) [nM] | IC50 (HPAC cells (KRAS G12D) [7]) [nM] | IC50 [8] [nM] | IC50 [9] [nM] | IC50 (H1573 cells (KRAS G12A)) [nM] | IC50 (A549 cells (KRAS G12S) [10]) [nM] | IC50 (H358 cells (KRAS G12C) [11]) [nM] | IC50 (SW1900 cells (KRAS G12D) [12]) [nM] | IC50 (RKN cells (KRAS G12V) [13]) [nM] | IC50 (RKN cells (KRAS G12V) [14]) [nM]
1 | CCN(c1nc(OC[C@@]23CCCN2C[C@H](F)C3)nc2c(F)c(-c3ccc(F)c4sc(N)c(C#N)c34)c(Cl)cc12)[C@@H]1CCN(C(C)=O)[C@@H]1C [Compound 323] | ≤ 100 | > 1000 | ≤ 100 | ≤ 100 | ≤ 100 | ≤ 100 | 100 to 1000 | ≤ 100 | ≤ 100 | ≤ 100 | ≤ 100 | ≤ 100 | ≤ 100 | ≤ 100 | – | –
2 | N#Cc1c(N)sc2c(F)ccc(-c3c(C(F)(F)F)cc4c(N5CCC[C@@H](O)C5)nc(OC[C@@]56CCCN5C[C@H](F)C6)nc4c3F)c12 [Compound 234] | > 1000 | > 1000 | ≤ 100 | ≤ 100 | ≤ 100 | ≤ 100 | 100 to 1000 | 100 to 1000 | ≤ 100 | ≤ 100 | ≤ 100 | ≤ 100 | ≤ 100 | ≤ 100 | – | –
3 | CCC(=O)N1CC[C@@H](N(C)c2nc(OC[C@@]34CCCN3C[C@H](F)C4)nc3c(F)c(-c4ccc(F)c5sc(N)c(C#N)c45)c(C(F)(F)F)cc23)[C@H]1C [Compound 260] | 100 to 1000 | > 1000 | ≤ 100 | 100 to 1000 | ≤ 100 | ≤ 100 | 100 to 1000 | 100 to 1000 | ≤ 100 | ≤ 100 | ≤ 100 | ≤ 100 | ≤ 100 | ≤ 100 | ≤ 100 | ≤ 100
4 | CCN(c1nc(OC[C@@]23CCCN2C[C@H](F)C3)nc2c(F)c(-c3ccc(F)c4sc(N)c(C#N)c34)c(Cl)cc12)[C@@H]1CCN(C(=O)C2CC2)[C@@H]1C [Compound 337] | 100 to 1000 | > 1000 | ≤ 100 | ≤ 100 | ≤ 100 | 100 to 1000 | 100 to 1000 | ≤ 100 | ≤ 100 | ≤ 100 | ≤ 100 | ≤ 100 | ≤ 100 | ≤ 100 | – | –

Reference: patent US20260042764A1, “COMPOSITIONS AND METHODS FOR INHIBITION OF KRAS” (TheRas, Inc., priority 2022, published 2026)
